From publication PMC10947176, “The Antimicrobial Properties of Pd^II− and Ru^II−pyta Complexes” (Chembiochem, 2023) come the findings set out here.

What all share (experiment): MIC against extended fungal panel
The subject of test [1] is C. albicans ATCC 90028. The format is cell-based, Candida albicans. The settings on record: for MIC: Candida albicans, ATCC90028. On the procedure:
(§1) The extended panel contained four Candida and two Cryptococcus strains (Table 1).
(§2) Antifungal data collection: Fungi strains were cultured for 3 days on yeast extract‐peptone dextrose (YPD) agar at 30 °C. A yeast suspension of 1×10^6 to 5×10^6 CFU mL^−1 (as determined by OD530) was prepared from five colonies. The suspension was diluted in supplemented YNB and added to each well of the compound‐containing plates giving a final cell density of fungi suspension of 2.5×10^3 CFU mL^−1 and 2 % DMSO. All plates were covered and incubated at 35 °C for 36 h without shaking.
(§3) Two biological replicates x2 technical replicates were conducted on separate days (final n=4).
(§4) Growth inhibition of C. albicans, C. tropicalis and C. glabrata was determined by measuring absorbance at 630 nm (OD630), while the growth inhibition of Cryptococcus spp. and C. auris was determined by measuring the difference in absorbance between 600 and 570 nm (OD600‐570), after the addition of resazurin (0.01 % final concentration) and incubation at 35 °C for 2 h. The absorbance was measured using a Biotek Multiflo Synergy HTX plate reader.
(§5) The percentage of growth inhibition was calculated for each well, using the negative control (media only) and positive control (fungi without inhibitors) on the same plate. […] In addition, the maximal percentage of growth inhibition is reported as D Max, indicating any compounds with marginal activity.

The subject of test [2] is Candida tropicalis ATCC 750. The format is cell-based. On the procedure: as §1, §2, §3, §4, §5
Test [3] concerns C. deuterogattii ATCC 32609. The class given is cell-based, Cryptococcus deuterogattii. On the procedure:
as §1, §2, §3, §4, §5

The subject of test [4] is C. auris CBS10913. The format is cell-based, Candida auris. On the procedure: as §1, §2, §3, §4, §5
Test [5] concerns C. neoformans ATCC 208821. The class given is cell-based, Cryptococcus neoformans. On the procedure:
as §1, §2, §3, §4, §5

In test [6] the test system is C. glabrata ATCC 90030. The class given is cell-based, Candida glabrata. On the procedure:
as §1, §2, §3, §4, §5

Read-outs that look alike come from different tables or passages of the source.

As usually defined, the MIC is the smallest concentration in the dilution series that meets the test's criterion for growth inhibition. `OC(Cn1cncn1)(Cn1cncn1)c1ccc(F)cc1F` [fluconazole]: the MIC is 0.816 to 1.63 µM in test [1] (Table S3, Table 1 values in µM, read-out: MIC, Candida albicans ATCC 90028); 0.25 to 0.5 µg/mL in test [1] (range of MICs, n=4, read-out: MIC, C. albicans ATCC 90028); 13.1 µM in test [2] (Candida tropicalis, ATCC750, Table S3, Table 1 values in µM); 4 µg/mL in test [2] (Candida tropicalis, ATCC750, range of MICs, n=4); 13.1 µM in test [2] (second Table S4, free ligands); > 104 µM in test [3] (Cryptococcus deuterogattii, ATCC32609, Table S3, Table 1 values in µM, read-out: MIC, Cryptococcus deuterogattii ATCC 32609). In addition, the MIC in test [3] (Cryptococcus deuterogattii, ATCC32609, range of MICs, n=4, read-out: MIC, C. deuterogattii ATCC 32609) was > 32 µg/mL; in test [3] (second Table S4, free ligands, read-out: MIC, Cryptococcus deuterogattii ATCC 32609) it was > 104 µM; in test [4] (Candidozyma auris, CBS10913, Table S3, Table 1 values in µM, read-out: MIC, Candida auris CBS10913), > 104 µM; in test [4] (Candidozyma auris, CBS10913, range of MICs, n=4, read-out: MIC, C. auris CBS10913), ≥ 32 µg/mL; in test [4] (second Table S4, free ligands, read-out: MIC, Candida auris CBS10913), > 104 µM; in test [5] (Cryptococcus neoformans, ATCC208821, Table S3, Table 1 values in µM, read-out: MIC, Cryptococcus neoformans ATCC 208821), 26.1 µM. Besides, the MIC in test [5] (Cryptococcus neoformans, ATCC208821, range of MICs, n=4, read-out: MIC, C. neoformans ATCC 208821) is 8 µg/mL; in test [5] (second Table S4, free ligands, read-out: MIC, Cryptococcus neoformans ATCC 208821), 26.1 µM; in test [6] (Nakaseomyces glabratus, ATCC90030, Table S3, Table 1 values in µM, read-out: MIC, Candida glabrata ATCC 90030), > 104 µM; in test [6] (Nakaseomyces glabratus, ATCC90030, range of MICs, n=4, read-out: MIC, C. glabrata ATCC 90030), > 32 µg/mL; in test [6] (second Table S4, free ligands, read-out: MIC, Candida glabrata ATCC 90030), > 104 µM. In addition, the “MIC, Candida albicans ATCC 90028” value in test [1] (second Table S4, free ligands) lay within 0.816 to 1.63 µM.
